# What was measured:
# [1] = test system: liver mitochondrial glycerol phosphate dehydrogenase (mGPDH) activity; experiment: Subacute study in normal rats, continuous infusion: liver mGPDH activity; type: in vivo, rats (Sprague-Dawley); details: continuous infusion 1 mg/kg/day
# From the text: (§1) Efficacy endpoints include serum cholesterol, liver mitochondrial glycerol phosphate dehydrogenase (mGPDH) activity and the expression of relevant liver genes (e.g., the LDL-receptor, apoB, cpt-1, spot14 and apoAI). Safety parameters include heart weight, heart rate, heart mGPDH activity, the expression and key genes involved in cardiac structure and function (e.g., Serca2, HCN2, Kv1.5, MHCα, MHCβ, Alpha1c), and standard plasma chemistry analysis (liver enzymes, electrolytes, creatinine). Endocrine effects are monitored by analysis of serum thyroid stimulating hormone (TSH). [Taylor et al., Mol Pharmacol 52(3): 542-7 (1997); Weitzel et al., Eur J Biochem 268(14):4095-4103 (2001)]
# (§2) Methods: mGPDH activity was analyzed in isolated mitochondria using 2-(4-iodophenyl)-3-(4-nitrophenyl)-5-phenyl tetrazolium chloride as the terminal electron acceptor (Gardner R S, Analytical Biochemistry 59:272 (1974)). Commercially available GPDH was used in each assay as a standard (Sigma, St. Louis, Mo.). Changes in levels of mRNA for liver and heart genes are analyzed using reverse transcriptase followed by real-time PCR analysis. The analysis is performed using an iCycler instrument (Biorad) and appropriate primers by means of standard methodology [e.g., Schwab D A et al. (2000) Life Sciences 66: 1683-94]. The amounts of mRNA are normalized to an internal control, typically, cyclophilin. Serum TSH is measured using an enzyme immunoassay (EIA) kit designed for rat TSH (Amersham Pharmacia Biotech, Arlington Heights, Ill.).
# (§3) Normal rats (Sprague-Dawley) were maintained on a standard diet. […] The compounds were brought up to an appropriate volume using PBS and BSA to maintain solubility within the pump. The compounds were chemically stable in the excipient at 37° C. for 7 days.
# (§4) Values are expressed as percent of control. (Table 4)
# [2] = test system: thyroid stimulating hormone (TSH); experiment: Circulating TSH in rats (cholesterol-fed, ZDF); type: in vivo; details: ZDF rats, 50 mg/kg/d for 28 days
# Protocol: as §2
# Another concern with synthetic thyromimetics is the suppression of the endogenous thyroid axis. Thyroid homeostasis is maintained by the action of thyroid releasing hormone (TRH) and thyroid stimulating hormone (TSH). […] Although this particular side effect has been noted, it has typically been treated with less concern than the cardiac safety issues. […] Therefore previous investigators have measured TSH levels when testing synthetic thyromimetics and have used a 30% decrease of TSH as the denominator in their therapeutic index calculations. […] Therefore, both compounds suppress TSH as doses lower than that required to decrease circulating cholesterol. […] However, 0.2 mg/kg/d of Compound 18 in 28 day treated ZDF rats, decreased TSH levels greater than 90%.
# [3] = Subacute study in normal rats, continuous infusion: heart weight; type: in vivo, rats (Sprague-Dawley); details: continuous infusion 1 mg/kg/day
# From the text: as §1, §3, §4
# [4] = target: T1, human thyroid hormone receptors TRβ1 (Homo sapiens, UniProt P10828); experiment: Receptor binding to TRβ1 (gel filtration and scintillation proximity assay, labeled T3); details: SPA data; read-out: Ki TRβ
# T1 construct: made in house; host or cells: Sf9 insect cells (baculovirus)
# T1 sequence (P10828 1-461): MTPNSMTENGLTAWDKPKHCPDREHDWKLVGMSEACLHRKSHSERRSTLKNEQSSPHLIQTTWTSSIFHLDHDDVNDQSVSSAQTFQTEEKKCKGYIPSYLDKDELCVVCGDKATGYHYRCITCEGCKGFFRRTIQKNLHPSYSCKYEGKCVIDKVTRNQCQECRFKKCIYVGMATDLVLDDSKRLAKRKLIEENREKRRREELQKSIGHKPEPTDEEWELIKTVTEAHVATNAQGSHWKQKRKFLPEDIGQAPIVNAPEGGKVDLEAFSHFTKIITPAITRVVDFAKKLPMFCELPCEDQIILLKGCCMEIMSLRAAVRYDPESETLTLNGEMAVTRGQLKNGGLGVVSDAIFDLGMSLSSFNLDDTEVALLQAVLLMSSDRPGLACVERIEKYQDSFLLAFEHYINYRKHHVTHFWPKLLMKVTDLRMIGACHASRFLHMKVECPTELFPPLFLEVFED
# T1 sequence (P19793 1-462 partner): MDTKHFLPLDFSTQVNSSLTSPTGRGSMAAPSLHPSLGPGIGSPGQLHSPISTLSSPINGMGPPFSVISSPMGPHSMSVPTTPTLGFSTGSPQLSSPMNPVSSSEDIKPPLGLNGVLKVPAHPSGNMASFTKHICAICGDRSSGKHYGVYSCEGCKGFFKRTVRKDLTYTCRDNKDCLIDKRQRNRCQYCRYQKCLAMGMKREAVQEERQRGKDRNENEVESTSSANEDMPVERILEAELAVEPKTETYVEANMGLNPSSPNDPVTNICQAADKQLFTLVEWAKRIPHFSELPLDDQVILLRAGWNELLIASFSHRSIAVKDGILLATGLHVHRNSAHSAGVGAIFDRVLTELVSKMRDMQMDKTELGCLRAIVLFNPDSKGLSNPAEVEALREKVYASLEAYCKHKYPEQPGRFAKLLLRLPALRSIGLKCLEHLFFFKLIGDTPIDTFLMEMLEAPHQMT
# heart mGPDH activity = experiment: Subacute study in normal rats, continuous infusion: heart mGPDH activity; type: in vivo, rats (Sprague-Dawley); details: continuous infusion 1 mg/kg/day
# From the text: as §1, §2, §3, §4
# [5] = Tissue distribution and pharmacokinetics following IP administration to normal rats; type: in vivo, SD rats; details: 10 mg/kg IP
# From the text: At pre-selected time points following dosing, the rats were anesthetized using iso-fluorane and the peritoneal cavity was then opened and a blood sample was obtained from the abdominal vena cava. In addition, liver, kidney, and heart were excised and immersed in 3 volumes of cold 60% acetonitrile. The blood samples were briefly centrifuged and the plasma fraction was then extracted with 1.5 volumes of methanol, processed, and analyzed by LC-UV as described in Example G. The frozen liver, kidney, and heart tissue were homogenized in 60% v/v acetonitrile, centrifuged, and then analyzed by LC-UV. Pharmacokinetic parameters and AUC of the plasma and tissue concentration-time profiles were determined noncompartmentally by WinNonLin.
smiles,measurement,setting,value
"Cc1cc(OCP(=O)(O)O)cc(C)c1Cc1ccc(O)c(C(C)C)c1 [Compound 7, [3,5-dimethyl-4-(4′-hydroxy-3′-iso-propylbenzyl)phenoxy]methylphosphonic acid]",Liver GPDH,[1],399% of control
same,TSH versus vehicle,[2],no statistically significant difference from vehicle
same,Heart Weight,[3],108% of control
same,cardiac hypertrophy,[3],did not cause cardiac hypertrophy
same,Ki,[4],3.3 nM
same,Heart GPDH,heart mGPDH activity,112% of control
same,Heart AUC,[5],32.8 nmol·h/g
same,Kidney AUC,[5],5.0 nmol·h/g
same,Liver AUC,[5],301.7 nmol·h/g
same,AUC,"[5]; male, SD, rat, plasma",31600 ng·h/mL
same,Cmax,"[5]; male, SD, rat, plasma",26000 ng/mL
same,Tmax,"[5]; male, SD, rat, plasma",20 min
same,CL/F,"[5]; male, SD, rat, plasma, read-out: Cl(observed)/F (converted)",5.01 mL/min/kg
same,Vd/F,"[5]; male, SD, rat, plasma, read-out: Vz(observed)/F",0.401 L/kg
same,AUMClast,[5]; plasma,33.7098 μg * hr^2/mL
same,Tlast,[5]; plasma,4 h
